Laboratory results: patent US11833238B2, “Topical testosterone (T) for promoting hair growth-containing formulations” (priority 2012, dated 2023)

How the values were obtained:
eyelash hair growth = experiment: appearance of lashes and hair around the eyes of glaucoma patients administering bimatoprost in only one eye (slit lamp biomicroscope); type: in vivo, human; settings: 0.03% ophthalmic solution, more than 3 months, treated vs control eye
Procedure: A study is initiated to systematically evaluate the appearance of lashes and hair around the eyes of patients who are administering bimatoprost in only one eye. The study involves 10 subjects, 5 male, 5 female, average age 70 years, (ranging from 50-94 years). All patients have glaucoma. Each subject is treated daily by the topical application of one drop of bimatoprost at a dosage of 1.5 µg/ml/eye/day (0.03%, by weight, ophthalmic solution, sold under the names Lumigan® and Latisse® by Allergan, Irvine, Calif., U.S.A.) to the region of one eye by instilling the drop onto the surface of the eye. The region of the fellow control eye is not treated with bimatoprost and served as a control.
In the course of treatment with eye drops, there is typically spontaneous tearing, and excess fluid from the drops and associated tears gathers at the lid margins. In the course of wiping the drug containing fluid from the lid margins and adjacent lid, a thin film of the fluid is routinely spread to contact the adjacent skin of the lid area.
The study is limited to subjects who have administered bimatoprost to one eye for more than 3 months. The mean duration of exposure to bimatoprost prior to assessing the parameter of lash growth between the control and study eye is 129 days (range 90-254 days). Observations are made under high magnification at the slit lamp biomicroscope. Documentation of differences between the control and treatment areas is accomplished using a camera specially adapted for use with the slit lamp biomicroscope. The results of the observations are as follows: Length of lashes: Increased length of eyelashes is regularly observed on the side treated with bimatoprost. The difference in length varies from approximately 10% to as much as 30%. […] In areas where there are a large number of lashes in the control eye, the increased number of lashes in the bimatoprost-treated eye gave the lashes on the treated side a more thickly matted overall appearance. […] These long, thick lash-like hairs were present in the central portion of the lids of several patients in a linear arrangement just above the lash line. Hairs are present at similar locations in the control eyes but are by contrast thinner or more fine in appearance, have less luster and pigment and are more flat against the skin of the lid typical of vellus or intermediate hairs. In several patients, lash-like terminal hairs grow luxuriantly in the medial canthal area in the treated eye. In the corresponding control eye, vellus hairs are seen at the same location. Lash-like hairs are also present in the lateral canthal area of the treated eye but not the control eye in several subjects. […]

[1] = powder; cited from earlier work

## CCNC(=O)CCC/C=C\C[C@@H]1[C@@H](/C=C/[C@@H](O)CCc2ccccc2)[C@H](O)C[C@@H]1O [bimatoprost, (Z)-7-[(1R,2R,3R,5S)-3,5Dihydroxy-2-[(1E,3S)-3-hydroxy-5-phenyl-1-pentenyl]cyclopentyl]-5-N-ethylheptenamide]
Eyelash hair growth
  Auxiliary lash-like hair growth: apparent increase in lash-like hair in transitional areas adjacent to areas of normal lash distribution
  Number of lashes: Increased numbers of lashes are observed in the treated eye of each patient
  Perpendicular angulation of hairs: leave the surface of the skin at a more acute angle
  growth of vellus hair on lids: vellus hairs are increased in number, appear more robust and are much longer and thicker in treated than in control eyes
[1]
  solubility in ethyl alcohol: very soluble
  solubility in methyl alcohol: very soluble
  solubility in water: slightly soluble
